Measured values reported in patent publication US20210283198A1, “METHOD FOR TREATING AND/OR PREVENTING COCCIDIOSIS” (priority 2020, published 2021).
Marks after values point to notes of the source that are not given here. *1 amine or outer side, *2 acyl side, *3 side chain or, on linkers, in order; H or OH if unused. Where a SMILES comes first, the peptide text is derived from it. Bridges are numbered along the chain shown (N, C = ends). [ ]: non-standard residue; d: D form. X1 = CC(C)CCCCCCCCC[C@H](CC(=O)[*:1])O[*:2]

Legend:
[1] = tested on: Eimeria tenella sporozoites; assay: Scanning electron microscopy of sporozoite morphology; assay type: cell-based; settings: 5, 10, 20 ppm; 1 h at 37° C.; 10^6 sporozoites/mL; compared with untreated group
[2] = tested on: Eimeria tenella merozoites; assay: In vitro death of merozoite (propidium iodide staining, confocal microscopy); assay type: cell-based; settings: 100 ppm; 10^4/mL merozoites; 1 h at 37° C.; mean ± SD (n = 3)
P. falciparum = settings: literature (Chakrabarty et al. 2008); cited from earlier work

For `CC(C)CCCCCCCCC[C@@H]1CC(=O)N[C@@H](CCC(=O)O)C(=O)N[C@@H](CC(C)C)C(=O)N[C@H](CC(C)C)C(=O)N[C@@H](C(C)C)C(=O)N[C@@H](CC(=O)O)C(=O)N[C@H](CC(C)C)C(=O)N[C@@H](CC(C)C)C(=O)O1` [surfactin standard, surfactin] (EL[dL]VD[dL]L; linker N-C via X1), the “Morphology of Eimeria tenella sporozoites (scanning electron microscopy)” value [1] is given as “disrupt the morphology”, the “Death of merozoite (%)” value [2] is given as 97 ± 0.01^b % and the “Intraerythrocytic growth of P. falciparum” value (P. falciparum) is given as “potent inhibitor of intraerythrocytic growth”.
